From US20230278972A1, “SUBSTITUTED HALOALKYL SULFONANILIDE HERBICIDES” (FMC Corporation, priority 2020, published 2023)

Columns and labels:
Assay type in all cases: in vivo
[1] = tested on: barnyardgrass (Echinochloa crus-galli); test: Test A preemergence, barnyardgrass; conditions: Preemergence; for Plant response rating, Barnyardgrass: 0 to 100 scale (0 no effect, 100 complete control); for Barnyardgrass plant response rating: visual injury on 0 to 100 scale (0 no effect, 100 complete control), approximately 10 days
Outline: (§1)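 Directed soil spray at planting gave the preemergence treatment, while foliar application to one- to two-leaf seedlings (2–10 cm) gave the postemergence one; pots held a loam and sand mixture and chemicals were carried in a non-phytotoxic solvent with surfactant.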

[2] = tested on: blackgrass (Alopecurus myosuroides); test: Test A postemergence, blackgrass; conditions: Postemergence, 0 to 100 scale (0 no effect, 100 complete control)
Outline: as §1

[3] = tested on: Foxtail, Giant (giant foxtail, Setaria faberi); test: Test A preemergence, Foxtail, Giant; conditions: Preemergence; for Plant response rating, Foxtail, Giant: 0 to 100 scale (0 no effect, 100 complete control); for Foxtail, Giant plant response rating: visual injury on 0 to 100 scale (0 no effect, 100 complete control), approximately 10 days
Outline: as §1

[4] = tested on: pigweed (Amaranthus retroflexus); test: Test A preemergence, pigweed; conditions: for Plant response rating, Pigweed: 0 to 100 scale (0 no effect, 100 complete control); for Pigweed plant response rating: visual injury on 0 to 100 scale (0 no effect, 100 complete control), approximately 10 days
Outline: (§2)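 Seeds are sown in loam mixed with sand and sprayed on the soil surface right after planting for the preemergence test. Postemergence pots are sprayed once seedlings reach 2 to 10 cm at the one- to two-leaf stage. The same surfactant-containing, non-phytotoxic solvent formulation serves both.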

[5] = tested on: barnyardgrass (Echinochloa crus-galli); test: Test A postemergence, barnyardgrass; conditions: Postemergence, 0 to 100 scale (0 no effect, 100 complete control)
Outline: as §2

[6] = tested on: ragweed (common ragweed, Ambrosia artemisiifolia); test: Test A postemergence, ragweed; conditions: Postemergence, 0 to 100 scale (0 no effect, 100 complete control)
Outline: as §1

[7] = tested on: Foxtail, Giant (giant foxtail, Setaria faberi); test: Test A postemergence, Foxtail, Giant; conditions: Postemergence, 0 to 100 scale (0 no effect, 100 complete control)
Outline: as §1

[8] = tested on: galium (catchweed bedstraw, Galium aparine); test: Test A postemergence, galium; conditions: Postemergence, 0 to 100 scale (0 no effect, 100 complete control)
Outline: as §2

[9] = tested on: Ryegrass, Italian (Italian ryegrass, Lolium multiflorum); test: Test A postemergence, Ryegrass, Italian; conditions: Postemergence, 0 to 100 scale (0 no effect, 100 complete control)
Outline: as §1

[10] = tested on: ragweed (common ragweed, Ambrosia artemisiifolia); test: Test A preemergence, ragweed; conditions: Preemergence; for Plant response rating, Ragweed: 0 to 100 scale (0 no effect, 100 complete control); for Ragweed plant response rating: visual injury on 0 to 100 scale (0 no effect, 100 complete control), approximately 10 days
Outline: as §1

[11] = tested on: Ryegrass, Italian (Italian ryegrass, Lolium multiflorum); test: Test A preemergence, Ryegrass, Italian; conditions: Preemergence; for Plant response rating, Ryegrass, Italian: 0 to 100 scale (0 no effect, 100 complete control); for Ryegrass, Italian plant response rating: visual injury on 0 to 100 scale (0 no effect, 100 complete control), approximately 10 days
Outline: as §1

kochia (Bassia scoparia) [12] = test: Test A preemergence, kochia; conditions: Preemergence; for Plant response rating, Kochia: 0 to 100 scale (0 no effect, 100 complete control); for Kochia plant response rating: visual injury on 0 to 100 scale (0 no effect, 100 complete control), approximately 10 days
Outline: as §1

corn (Zea mays) = test: Test A postemergence, corn; conditions: Postemergence, 0 to 100 scale (0 no effect, 100 complete control)
Outline: as §1

[13] = tested on: pigweed (Amaranthus retroflexus); test: Test A postemergence, pigweed; conditions: Postemergence, 0 to 100 scale (0 no effect, 100 complete control)
Outline: as §1

kochia (Bassia scoparia) [14] = test: Test A postemergence, kochia; conditions: Postemergence, 0 to 100 scale (0 no effect, 100 complete control)
Outline: as §1

[15] = tested on: wheat (Triticum aestivum); test: Test A postemergence, wheat; conditions: Postemergence, 0 to 100 scale (0 no effect, 100 complete control)
Outline: as §2

[16] = 125 g ai/ha, visual injury, approx. 10 days
[17] = 500 g ai/ha, visual injury vs untreated controls after approx. 10 days
[18] = 500 g ai/ha, visual injury approx. 10 days
[19] = 125 g ai/ha, visual injury approx. 10 days
[20] = 500 g ai/ha, visual injury, approx. 10 days

Cc1cc(Cl)c(N(S(=O)(=O)C(F)(F)F)S(=O)(=O)C(F)(F)F)cc1C1=NOC2(CCCCC2)C1 [Compound 217]
80: Plant response rating, Galium ([8]; 125 g ai/ha) | Plant response rating, Ryegrass, Italian [11, 16] | Pigweed plant response rating [13, 17]
0: Plant response rating, Blackgrass ([2]; 125 g ai/ha) | Plant response rating, Barnyardgrass ([5]; 125 g ai/ha) | Plant response rating, Foxtail, Giant ([7]; 125 g ai/ha) | Foxtail, Giant plant response rating [7, 17] | Plant response rating, Ryegrass, Italian ([9]; 125 g ai/ha) | Ryegrass, Italian plant response rating [9, 17] | Plant response rating, Corn (corn (Zea mays); 125 g ai/ha) | Plant response rating, Wheat ([15]; 125 g ai/ha)
70: Plant response rating, Pigweed [4, 16] | Ragweed plant response rating [6, 17] | Plant response rating, Kochia (kochia (Bassia scoparia) [12]; [16]) | Kochia plant response rating (kochia (Bassia scoparia) [14]; [17])
100: Plant response rating, Barnyardgrass ([1]; 500 g ai/ha) | Plant response rating, Foxtail, Giant ([3]; 500 g ai/ha) | Plant response rating, Pigweed ([4]; 500 g ai/ha) | Plant response rating, Ryegrass, Italian ([11]; 500 g ai/ha)
90: Plant response rating, Barnyardgrass [1, 16] | Plant response rating, Foxtail, Giant [3, 16] | Galium plant response rating [8, 17] | Plant response rating, Ragweed ([10]; 500 g ai/ha) | Plant response rating, Kochia (kochia (Bassia scoparia) [12]; 500 g ai/ha)
60: Plant response rating, Ragweed ([6]; 125 g ai/ha) | Plant response rating, Ragweed [10, 16]
40: Plant response rating, Pigweed ([13]; 125 g ai/ha)
30: Barnyardgrass plant response rating [5, 17] | Wheat plant response rating [15, 17]
50: Plant response rating, Kochia (kochia (Bassia scoparia) [14]; 125 g ai/ha)
20: Blackgrass plant response rating [2, 17] | Corn plant response rating (corn (Zea mays); [17])

Cc1cc(Cl)c(C(=O)N2CCCCC2)cc1N(S(=O)(=O)C(F)(F)F)S(=O)(=O)C(F)(F)F [Compound 253]
20: Plant response rating, Barnyardgrass [5, 18]
0: Plant response rating, Blackgrass ([2]; 125 g ai/ha) | Plant response rating, Blackgrass [2, 18] | Plant response rating, Barnyardgrass ([5]; 125 g ai/ha) | Plant response rating, Foxtail, Giant ([7]; 125 g ai/ha) | Plant response rating, Foxtail, Giant [7, 18] | Plant response rating, Ryegrass, Italian ([9]; 125 g ai/ha) | Plant response rating, Ryegrass, Italian [9, 18] | Plant response rating, Corn (corn (Zea mays); 125 g ai/ha) | Plant response rating, Corn (corn (Zea mays); [18]) | Plant response rating, Wheat ([15]; 125 g ai/ha) | Plant response rating, Wheat [15, 18]
100: Plant response rating, Foxtail, Giant [3, 16] | Foxtail, Giant plant response rating ([3]; 500 g ai/ha) | Plant response rating, Pigweed [4, 16] | Pigweed plant response rating ([4]; 500 g ai/ha) | Ryegrass, Italian plant response rating ([11]; 500 g ai/ha)
60: Plant response rating, Barnyardgrass [1, 16] | Plant response rating, Ryegrass, Italian [11, 16] | Plant response rating, Kochia (kochia (Bassia scoparia) [14]; [18])
50: Plant response rating, Ragweed [6, 18] | Plant response rating, Pigweed ([13]; 125 g ai/ha)
90: Plant response rating, Galium [8, 18]
40: Plant response rating, Ragweed [10, 16] | Ragweed plant response rating ([10]; 500 g ai/ha)
30: Plant response rating, Ragweed ([6]; 125 g ai/ha) | Plant response rating, Kochia (kochia (Bassia scoparia) [14]; 125 g ai/ha)
80: Kochia plant response rating (kochia (Bassia scoparia) [12]; 500 g ai/ha) | Plant response rating, Pigweed [13, 18]
70: Barnyardgrass plant response rating ([1]; 500 g ai/ha) | Plant response rating, Galium ([8]; 125 g ai/ha) | Plant response rating, Kochia (kochia (Bassia scoparia) [12]; [16])

Cc1cc(C)c(N(S(=O)(=O)C(F)(F)F)S(=O)(=O)C(F)(F)F)cc1-c1cn(C)c(=O)n(C)c1=O [Compound 42]
20: Plant response rating, Kochia (kochia (Bassia scoparia) [14]; [19])
50: Plant response rating, Galium [8, 19]
40: Plant response rating, Blackgrass [2, 19] | Pigweed plant response rating ([4]; 125 g ai/ha) | Plant response rating, Ragweed [6, 19] | Kochia plant response rating (kochia (Bassia scoparia) [12]; 125 g ai/ha) | Plant response rating, Pigweed [13, 19]
90: Barnyardgrass plant response rating ([1]; 125 g ai/ha) | Plant response rating, Blackgrass [2, 20] | Plant response rating, Foxtail, Giant [7, 19] | Plant response rating, Foxtail, Giant [7, 20]
60: Plant response rating, Galium [8, 20] | Plant response rating, Corn (corn (Zea mays); [20])
70: Plant response rating, Barnyardgrass [5, 19] | Plant response rating, Ryegrass, Italian [9, 19] | Plant response rating, Kochia (kochia (Bassia scoparia) [12]; 500 g ai/ha) | Plant response rating, Wheat [15, 19] | Plant response rating, Wheat [15, 20]
0: Plant response rating, Corn (corn (Zea mays); [19])
80: Plant response rating, Pigweed ([4]; 500 g ai/ha) | Plant response rating, Barnyardgrass [5, 20] | Plant response rating, Ragweed [6, 20] | Plant response rating, Ryegrass, Italian [9, 20] | Plant response rating, Ragweed ([10]; 500 g ai/ha)
100: Plant response rating, Barnyardgrass ([1]; 500 g ai/ha) | Foxtail, Giant plant response rating ([3]; 125 g ai/ha) | Plant response rating, Foxtail, Giant ([3]; 500 g ai/ha) | Ryegrass, Italian plant response rating ([11]; 125 g ai/ha) | Plant response rating, Ryegrass, Italian ([11]; 500 g ai/ha) | Plant response rating, Pigweed [13, 20]
30: Ragweed plant response rating ([10]; 125 g ai/ha) | Plant response rating, Kochia (kochia (Bassia scoparia) [14]; [20])
